Legend:
Assay type in all cases: binding
HusA R139A = target: T1, HusA R139A (Porphyromonas gingivalis, UniProt Q7MSY3, R139A); assay: Tryptophan fluorescence quenching assay, HusA mutant R139A; settings: haemin
T1 sequence (Q7MSY3 24-218 R139A): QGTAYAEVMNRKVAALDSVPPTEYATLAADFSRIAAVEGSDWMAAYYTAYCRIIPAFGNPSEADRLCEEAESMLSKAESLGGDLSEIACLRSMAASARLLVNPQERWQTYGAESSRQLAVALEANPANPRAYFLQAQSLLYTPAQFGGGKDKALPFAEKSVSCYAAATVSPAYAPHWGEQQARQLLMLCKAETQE

HusA Y133A = target: T2, HusA Y133A (Porphyromonas gingivalis, UniProt Q7MSY3, Y133A); assay: Tryptophan fluorescence quenching assay, HusA mutant Y133A; settings: haemin
T2 sequence (Q7MSY3 24-218 Y133A): T1 sequence (Q7MSY3 24-218 R139A)

HusA L123N-V124N = target: T3, HusA L123N-V124N (Porphyromonas gingivalis, UniProt Q7MSY3, L123N/V124N); assay: Tryptophan fluorescence quenching assay, HusA mutant L123N-V124N; settings: haemin, mutant L123N-V124N
T3 sequence (Q7MSY3 24-218 L123N/V124N): T1 sequence (Q7MSY3 24-218 R139A)
Experimental: (§1) The quenching of intrinsic tryptophan fluorescence of HusA upon porphyrin additions was measured using a Carey Eclipse Fluorescence Spectrophotometer (Agilent) set to a photo multiplier effect (PME) of 850. A 5-mm path length quartz cuvette was used and all spectra were acquired at room temperature. Excitation was set to 295 nm and emission was measured from 300 nm to 500 nm using excitation/emission slit widths of 5 nm. Binding assays were performed at a protein concentration of 1 μM HusA in standard buffer at a working volume of 0.5 mL. […] The fluorescence quenching of HusA by PPIX was investigated in a similar manner with the following difference: the fluorescence intensities of ten 1 μM HusA samples were measured each with increasing amounts of PPIX after a 2-h incubation period to allow equilibrium to be reached. See Supplementary Methods for correction for inner filter effect and curve fitting. […]
(§2) Correction of inner filter effect and curve fitting in tryptophan fluorescence quenching assays The concentration of NATA was chosen such that the raw fluorescence intensity was similar to the 10 uM concentrations of HusA and mutants used. […] Fluorescence intensity was scaled with respect to the starting florescence and corrected for the inner filter effect. Fluorescence at 335 nm was used to fit binding curves. […]

HusA W130N = target: T4, HusA W130N (Porphyromonas gingivalis, UniProt Q7MSY3, W130N); assay: Tryptophan fluorescence quenching assay, HusA mutant W130N; settings: haemin
T4 sequence (Q7MSY3 24-218 W130N): T1 sequence (Q7MSY3 24-218 R139A)

HusA R121A = target: T5, HusA R121A (Porphyromonas gingivalis, UniProt Q7MSY3, R121A); assay: Tryptophan fluorescence quenching assay, HusA mutant R121A; settings: haemin
T5 sequence (Q7MSY3 24-218 R121A): T1 sequence (Q7MSY3 24-218 R139A)

HusA L107A = target: T6, HusA L107A (Porphyromonas gingivalis, UniProt Q7MSY3, L107A); assay: Tryptophan fluorescence quenching assay, HusA mutant L107A; settings: haemin
T6 sequence (Q7MSY3 24-218 L107A): T1 sequence (Q7MSY3 24-218 R139A)

HusA Y164A = target: T7, HusA Y164A (Porphyromonas gingivalis, UniProt Q7MSY3, Y164A); assay: Tryptophan fluorescence quenching assay, HusA mutant Y164A; settings: haemin
T7 sequence (Q7MSY3 24-218 Y164A): T1 sequence (Q7MSY3 24-218 R139A)
Experimental: as §1, §2

C=CC1=C(C)c2cc3[nH]c(cc4nc(cc5[nH]c(cc1n2)c(C)c5CCC(=O)O)C(CCC(=O)O)=C4C)c(C)c3C=C.[Fe+3] [haemin]
Kd (HusA R139A): 6.3 ± 1.4 µM | Kd (HusA Y133A): 7.4 ± 0.6 µM | Kd (HusA L123N-V124N): 10.3 ± 0.7 µM | Kd (HusA W130N): 16 ± 1.8 µM | Kd (HusA R121A): 6.7 ± 1.2 µM | Kd (HusA L107A): 5.5 ± 0.3 µM | Kd (HusA Y164A): 13 ± 0.7 µM

Source: PMC6173696, “Structural properties of a haemophore facilitate targeted elimination of the pathogen Porphyromonas gingivalis” (Nature Communications, 2018)
